Reference: PMC4251666 (ACS chemical biology, 2012)

Tested on: cytosolic cysteine proteases
Assay: Calpain activity assay in isolated renal cytosol
Format: biochemical, New Zealand White rabbits
Conditions: 10 μM, 50 μM SLLVY-AMC

`CCCC[C@@H](C=O)NC(=O)[C@H](CC(C)C)NC(=O)OCc1ccccc1` [Calpeptin] was tested, and the “inhibition of activity in isolated cytosol” value was ~ 50%.
